Reference: patent US20230324392A1, “METHODS AND COMPOSITIONS FOR TARGETING CYTOSOLIC DSDNA SIGNALING IN CHROMOSOMALLY UNSTABLE CANCERS” (MEMORIAL SLOAN KETTERING CANCER CENTER, priority 2020, published 2023)
Several values for one entry are separate records, joined by “and”; a condition that tells them apart may be missing. Equal entries are not always repeated.

Tests used:
[1] = test system: 4T1 cells; assay: Tail vein inoculation of 4T1 cells in BALB/c mice, survival; assay type: in vivo, mouse; details: 4T1, BALB/c, daily IP, vs vehicle
Protocol: (§1) Animal metastasis studies: Animal experiments were performed in accordance with protocols approved by the MSKCC Institutional Animal Care and Use Committee. […] There was no need to randomize animals. Investigators were not blinded to group allocation. For tail vein injections, 5×10^4 4T1, 2.5×10^4 B16F10, or 10^5 CT26 cells were injected into the tail vein of 6-7-week old BALB/c (4T1 and CT26) or C57BL/6 (B16F10) mice. Metastasis was primarily assessed through overall survival. Overall survival endpoint was met when the mice died or met the criteria for euthanasia under the IACUC protocol. […] Surface lung metastases were assessed at endpoint by direct visual examination after euthanasia at which points lungs were perfused and fixed in 4% paraformaldehyde (4T1 and B16F10 experiments) or stained using India-ink (CT26 experiments). Furthermore, lung metastasis after injection of 4T1 cells was qualitatively assessed using routine hematoxylin and eosin (H&E) staining. […] Primary tumors were surgically excised on day 7 after implantation and metastatic dissemination was assessed by monitoring overall survival or on day 30 through quantification of surface lung metastases upon euthanasia. The length (L) and width (W) of the primary tumors were measured using calipers. Tumor size was calculated according to the following formula: L*W2/2. […]

[2] = biological target: T1, STING (Mus musculus, UniProt Q3TBT3); assay: ISG expression in cGAMP-transfected Cgas-KO 4T1 cells with or without C-176; assay type: cell-based; details: in the presence of C-176
T1 construct: endogenous in cells; host or cells: Cgas-KO 4T1 cells (mouse mammary carcinoma; parental line from ATCC)
T1 sequence (Q3TBT3 1-378): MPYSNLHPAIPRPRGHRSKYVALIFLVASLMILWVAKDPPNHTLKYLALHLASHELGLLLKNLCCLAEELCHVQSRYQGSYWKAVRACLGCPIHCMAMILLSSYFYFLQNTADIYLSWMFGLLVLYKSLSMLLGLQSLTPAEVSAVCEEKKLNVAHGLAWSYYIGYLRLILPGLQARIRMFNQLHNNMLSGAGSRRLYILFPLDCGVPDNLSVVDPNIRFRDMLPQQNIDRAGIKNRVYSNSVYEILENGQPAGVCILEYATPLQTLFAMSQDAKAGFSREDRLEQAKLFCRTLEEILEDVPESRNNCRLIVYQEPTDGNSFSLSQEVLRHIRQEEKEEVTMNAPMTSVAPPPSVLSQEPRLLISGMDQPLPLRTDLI
Protocol: Quantitative PCR for STING inhibition study: RNA was extracted from cells with Trizol (Invitrogen, Carlsbad, CA, #15596026). cDNA was synthesized using the RNA to cDNA EcoDry™ Premix (Double Primed) kit (Takara #639549). Real-time PCR was performed to measure the relative mRNA expression levels of ISGs and the control GAPDH using Luna® Universal qPCR Master Mix (NEB, IPSWICH, MA, M3003L). The qPCR reaction and analysis were performed on a QuantStudio 6 platform (Life technology, Carlsbad, CA). The sequence of primers for Ccl5 is 5′-[sequence]-3′ and 5′-[sequence]-3′. […] The sequence for primers for Gapdh is 5′-[sequence]-3′ and 5′-[sequence]-3′.

[3] = test system: B16F10 cells; assay: Tail vein inoculation of B16F10 cells in C57BL/6 mice, survival; assay type: in vivo, mouse
Protocol: as §1

[4] = test system: 4T1 primary tumor; assay: Orthotopically transplanted primary 4T1 tumors, tumor size; assay type: in vivo, mouse; details: orthotopic, vs vehicle
Protocol: as §1

[5] = test system: CT26 cells; assay: Tail vein inoculation of CT26 cells in BALB/c mice, metastasis and survival; assay type: in vivo, mouse
Protocol: Animal metastasis studies: Animal experiments were performed in accordance with protocols approved by the MSKCC Institutional Animal Care and Use Committee. […] There was no need to randomize animals. Investigators were not blinded to group allocation. For tail vein injections, 5×10^4 4T1, 2.5×10^4 B16F10, or 10^5 CT26 cells were injected into the tail vein of 6-7-week old BALB/c (4T1 and CT26) or C57BL/6 (B16F10) mice. Metastasis was primarily assessed through overall survival. Overall survival endpoint was met when the mice died or met the criteria for euthanasia under the IACUC protocol. Animals were censored when death was confirmed to have occurred due to metastasis-unrelated causes such as injury or death during injection, surgery, or anesthesia. Surface lung metastases were assessed at endpoint by direct visual examination after euthanasia at which points lungs were perfused and fixed in 4% paraformaldehyde (4T1 and B16F10 experiments) or stained using India-ink (CT26 experiments). […] H-151 was reconstituted in DMSO with concentration of 100 mM. Each mouse was injected intraperitoneally with 7.5 μL of H-151 stock solution in 200 μL of PBS with 0.1% Tween −80.

[6] = test system: B16F10, 4T1 or CT26 cells; assay: Cell proliferation assay; assay type: cell-based, mouse; details: C176 at 1 μM; 12-48 hours
Protocol: Cell proliferation assay: Cell proliferation was determined by seeding of 5×10^3 B16F10, 4T1 or CT26 cells in 6 well plates in triplicate. Cells were treated with C176 at 1 μM (Probechem, China) or DMSO control. Thereafter cells were counted in triplicate at 12, 24, 36, and 48 hours using trypan blue staining and the EVE™ automated cell counter (NanoEnTek, South Korea).

[7] = Blood counts of mice treated with C-176; assay type: in vivo, mouse; details: for NEUT: reference range 9.86-39.11; for LYMPH: reference range 48.81-83.82
[8] = automated differential, animals 1, 2
[9] = complete blood count, animals 1, 2
[10] = manual differential, animals 1, 2

## O=C(Nc1ccc(I)cc1)c1ccc([N+](=O)[O-])o1 [C-176]
[1]
  survival of tumor bearing mice: significantly prolonged survival
[2]
  effect on ISG induction by cGAMP transfection: suppressed
[3]; B16F10, C57BL/6, daily IP, vs vehicle
  survival of tumor bearing mice: significantly prolonged survival
[3]; B16F10-bearing animals, at 98 days
  treated group with no evidence of disease: ~30%
[4]
  4T1 primary tumor size: did not have a significant impact
[5]; 13 days after tail vein injection, daily IP
  number of CT26 lung metastasis: significant reduction
[5]; CT26, BALB/c, IP, vs vehicle
  survival of tumor bearing mice: significantly prolonged survival
[6]
  cellular proliferation: did not impact cellular proliferation
[7]; automated differential, animals 1, 2, reference range 0.00-1.84
  BASO: 0% and 0.1%
[7]; automated differential, animals 1, 2, reference range 0.01-0.49
  EO#: 0.1 K/uL and 0.16 K/uL
[7]; automated differential, animals 1, 2, reference range 0.21-1.37
  MONO#: 0.22 K/uL and 0.25 K/uL
[7]; automated differential, animals 1, 2, reference range 0.58-3.83
  NEUT#: 2.98 K/uL and 4.69 K/uL
[7]; automated differential, animals 1, 2, reference range 2.22-11.56
  LYMPH#: 3.35 K/uL and 3.14 K/uL
[7]; automated differential, animals 1, 2, reference range 3.29-14.33
  MONO: 3.3% and 3%
[7]; automated differential, animals 1, 2, reference range 3.48-14.84
  WBC#: 6.65 K/uL and 8.25 K/uL
[7]; [8]
  NEUT: 44.8% and 56.9%
  LYMPH: 50.4% and 38.1%
[7]; automated differential, animals 1, 2, reference range printed 7 0.07-4.91^
  EO: 1.5% and 1.9%
[7]; [9]
  PDW: 9.9 fL and 10.3 fL
  RDW-SD: 29.1 fL and 29.6 fL
[7]; complete blood count, animals 1, 2, reference range 2.56-4.56
  RET: 4.04% and 5.29%
[7]; complete blood count, animals 1, 2, reference range 4.6-5.9
  MPV: 7 fL and 7.3 fL
[7]; complete blood count, animals 1, 2, reference range 6.93-12.24
  RBC: 10.18 M/uL and 9.5 M/uL
[7]; complete blood count, animals 1, 2, reference range 12.4-20.5
  HGB: 15.3 g/dL and 14.4 g/dL
[7]; complete blood count, animals 1, 2, reference range 13.0-17.6
  MCH: 15 pg and 15.2 pg
[7]; complete blood count, animals 1, 2, reference range 16.9-23.5
  RDW-CV: 25.4% and 24%
[7]; complete blood count, animals 1, 2, reference range 23.3-33.1
  MCHC: 32.3 g/dL and 31.9 g/dL
[7]; complete blood count, animals 1, 2, reference range 42.1-68.3
  HCT: 47.3% and 45.2%
[7]; complete blood count, animals 1, 2, reference range 50.7-64.4
  MCV: 46.5 fL and 47.6 fL
[7]; complete blood count, animals 1, 2, reference range 294-444
  RET#: 411.3 K/uL and 502.6 K/uL
[7]; complete blood count, animals 1, 2, reference range 420-1698
  PLT: 1137 K/uL and 1026 K/uL
[7]; manual differential, animal 1
  BAND: 1%
[7]; manual differential, animals 1, 2, reference range 0.07-4.91
  EO: 2% and 1%
[7]; [10]
  NEUT: 45% and 57%
  LYMPH: 52% and 42%
